Measurements reported in patent US7186534B1 (The Trustees of Columbia University in the City of New York, priority 1997, dated 2007).
pIC50: −log10 of the molar value. Entries after “also recorded” stand apart in the source; their conditions may differ. Read-outs that look alike come from different tables or passages of the source.

Tests used:
[1] = target: T1, human 9-cis retinol dehydrogenase (9cRDH) (Homo sapiens, UniProt Q92781); experiment: Inhibition of recombinant human 9cRDH activity (9-cis-retinol oxidation, CHO cell homogenate, HPLC); type: biochemical; conditions: for inhibition of human 9cRDH activity (in words) / pIC50: 10 μM 9-cis-retinol; for pIC50: 15 min, 37° C., CHO cell homogenate, read-out: Estimated inhibitor concentration resulting in 50% inhibition of human 9-cis retinol dehydrogenase activity (ID50)
T1 sequence (Q92781 1-318): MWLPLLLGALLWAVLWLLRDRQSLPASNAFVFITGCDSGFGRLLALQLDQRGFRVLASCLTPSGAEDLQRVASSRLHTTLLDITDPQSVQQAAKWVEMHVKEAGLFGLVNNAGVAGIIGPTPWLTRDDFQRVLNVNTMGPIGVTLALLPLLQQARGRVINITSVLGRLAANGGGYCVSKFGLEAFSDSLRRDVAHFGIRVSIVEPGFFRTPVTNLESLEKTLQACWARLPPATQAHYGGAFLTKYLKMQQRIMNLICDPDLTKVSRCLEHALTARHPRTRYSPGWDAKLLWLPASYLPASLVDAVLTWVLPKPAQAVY

[2] = target: T2, mouse 9cRDH (Mus musculus, UniProt O55240); experiment: Inhibition of recombinant mouse 9cRDH activity (9-cis-retinol oxidation, CHO cell homogenate, HPLC); type: biochemical; conditions: for inhibition of mouse 9cRDH activity (in words): 10 μM 9-cis-retinol
T2 sequence (O55240 1-318): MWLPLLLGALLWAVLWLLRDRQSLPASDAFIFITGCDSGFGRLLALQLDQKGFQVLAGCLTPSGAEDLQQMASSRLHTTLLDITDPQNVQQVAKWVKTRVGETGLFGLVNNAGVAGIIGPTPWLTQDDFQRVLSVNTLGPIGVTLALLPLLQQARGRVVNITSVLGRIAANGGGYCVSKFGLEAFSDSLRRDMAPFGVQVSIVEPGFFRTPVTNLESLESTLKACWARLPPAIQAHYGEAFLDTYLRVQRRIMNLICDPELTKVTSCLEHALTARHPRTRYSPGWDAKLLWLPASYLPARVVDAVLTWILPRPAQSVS

[3] = 10 μM steroid, equimolar to substrate, forward (retinol oxidation) or reverse (retinaldehyde reduction) direction
[4] = phenylarsine oxide 15 μM, carbenoxolone 0.5 mM, all others 1 mM
[5] = NaCl up to 1 M, β-mercaptoethanol, dithiothreitol 1 mM, Triton X-100, sodium cholate 1% (w/v)
[6] = […] 15 μM, carbenoxolone 0.5 mM, all others 1 mM

C[C@]12CCC(=O)C=C1CC[C@@H]1[C@@H]2CC[C@]2(C)C(=O)CC[C@@H]12 [4-androstene-3,17dione]
inhibition of human 9cRDH activity by hydroxysteroids [1, 3]: none of these hydroxysteroids inhibited
inhibition of mouse 9cRDH activity by hydroxysteroids [2, 3]: none of these hydroxysteroids inhibited

Cc1cn[nH]c1 [4-methylpyrazole]
influence of SCAD/alcohol dehydrogenase inhibiting reagents on recombinant human 9cRDH activity [1, 4]: none of these compounds influenced
influence of SCAD/alcohol dehydrogenase inhibiting reagents on recombinant mouse 9cRDH activity [2, 4]: none of these compounds influenced

C[C@]12CCC(=O)C[C@@H]1CC[C@@H]1[C@@H]2CC[C@]2(C)C(=O)CC[C@@H]12 [5α-androstane-3,17dione]
inhibition of human 9cRDH activity by hydroxysteroids [1]: none of these hydroxysteroids inhibited
inhibition of mouse 9cRDH activity by hydroxysteroids [2]: none of these hydroxysteroids inhibited

C[C@]12CC[C@H](O)C[C@@H]1CC[C@@H]1[C@@H]2CC[C@]2(C)[C@@H](O)CC[C@@H]12 [5α-androstane-3β, 17βdiol]
inhibition of human 9cRDH activity by hydroxysteroids [1, 3]: none of these hydroxysteroids inhibited
inhibition of mouse 9cRDH activity by hydroxysteroids [2, 3]: none of these hydroxysteroids inhibited

O=C(O)CN(CCN(CC(=O)O)CC(=O)O)CC(=O)O [EDTA]
effect on 9cRDH activity expressed in CHO cells (first series) [1, 5]: not inhibited

CCCCCCCC/C=C\CCCCCCCC(=O)O [Oleic Acid, oleic acid]
times (fold) less potent than 13-cis retinoic acid as inhibitor of 9cRDH [1]: approximately 100
inhibition of human 9cRDH activity (in words) [1]: mild inhibitor; also recorded: only very weak inhibitors; also recorded: weakly inhibited
pIC50 [1]: 4.82
inhibition of mouse 9cRDH activity (in words) [2]: only very weak inhibitors

CCCCCCCC/C=C\CCCCCCCCO [Oleyl Alcohol, oleyl alcohol]
inhibition of human 9cRDH activity (in words) [1]: did not inhibit; also recorded: only very weak inhibitors; also recorded: not an inhibitor
pIC50 [1]: < 4.00
inhibition of mouse 9cRDH activity (in words) [2]: only very weak inhibitors

CCCCCCCCCCCCCCCC(=O)O [Palmitic Acid, palmitic acid]
pIC50 [1]: < 4.00
inhibition of human 9cRDH activity (in words) ([1]; listed as Palmitic acid): not an inhibitor
inhibition of human 9cRDH activity (in words) ([1]; listed as palmitic acid): not inhibitory; also recorded: only very weak inhibitors
inhibition of mouse 9cRDH activity (in words) [2]: only very weak inhibitors

CCCCCCCCCCC/C=C\CCCCCO [Petroselinyl Alcohol, petroselinyl alcohol]
inhibition of human 9cRDH activity (in words) [1]: did not inhibit; also recorded: not an inhibitor
pIC50 [1]: < 4.00
inhibition of human 9cRDH activity (in words) ([1]; listed as petrosenlinyl alcohol): only very weak inhibitors
inhibition of mouse 9cRDH activity (in words) [2]: only very weak inhibitors

CC1(C)[C@@H](OC(=O)CCC(=O)O)CC[C@]2(C)[C@H]3C(=O)C=C4[C@@H]5C[C@@](C)(C(=O)O)CC[C@]5(C)CC[C@@]4(C)[C@]3(C)CC[C@@H]12 [carbenoxolone]
influence of SCAD/alcohol dehydrogenase inhibiting reagents on recombinant human 9cRDH activity [1, 4]: none of these compounds influenced
influence of SCAD/alcohol dehydrogenase inhibiting reagents on recombinant mouse 9cRDH activity [2, 4]: none of these compounds influenced

CC(C)=CCCC(C)=CC=O [citral]
influence of SCAD/alcohol dehydrogenase inhibiting reagents on recombinant human 9cRDH activity [1, 6]: none of these compounds influenced
influence of SCAD/alcohol dehydrogenase inhibiting reagents on recombinant mouse 9cRDH activity [2, 6]: none of these compounds influenced

C[C@]12C[C@H](O)[C@H]3[C@@H](CCC4=CC(=O)CC[C@@]43C)[C@@H]1CC[C@@H]2C(=O)CO [corticosterone]
inhibition of human 9cRDH activity by hydroxysteroids [1, 3]: none of these hydroxysteroids inhibited
inhibition of mouse 9cRDH activity by hydroxysteroids [2, 3]: none of these hydroxysteroids inhibited

C[C@]12CCC(=O)C=C1CC[C@@H]1[C@@H]2C(=O)C[C@@]2(C)[C@H]1CC[C@]2(O)C(=O)CO [cortisone]
inhibition of human 9cRDH activity by hydroxysteroids [1, 3]: none of these hydroxysteroids inhibited
inhibition of mouse 9cRDH activity by hydroxysteroids [2, 3]: none of these hydroxysteroids inhibited

CCN(CC)C(=S)SSC(=S)N(CC)CC [disulfuran]
influence of SCAD/alcohol dehydrogenase inhibiting reagents on recombinant human 9cRDH activity [1, 6]: none of these compounds influenced
influence of SCAD/alcohol dehydrogenase inhibiting reagents on recombinant mouse 9cRDH activity [2, 6]: none of these compounds influenced

CCO [ethanol]
inhibition of human 9cRDH activity (in words) [1]: not inhibited
effect on 9cRDH activity expressed in CHO cells (first series) [1, 5]: not inhibited
inhibition of mouse 9cRDH activity (in words) [2]: not inhibited

C[C@]12CCC(=O)C=C1CC[C@@H]1[C@@H]2[C@@H](O)C[C@@]2(C)[C@H]1CC[C@]2(O)C(=O)CO [hydrocortisone]
inhibition of human 9cRDH activity by hydroxysteroids [1, 3]: none of these hydroxysteroids inhibited
inhibition of mouse 9cRDH activity by hydroxysteroids [2, 3]: none of these hydroxysteroids inhibited

c1cnc2c(c1)ccc1cccnc12 [o-phenanthroline, 1,10-phenanthroline]
effect on 9cRDH activity expressed in CHO cells (first series) [1, 5]: not inhibited
influence of SCAD/alcohol dehydrogenase inhibiting reagents on recombinant human 9cRDH activity [1, 4]: none of these compounds influenced
influence of SCAD/alcohol dehydrogenase inhibiting reagents on recombinant mouse 9cRDH activity [2, 4]: none of these compounds influenced

C[C@]12C=CC(=O)C=C1CC[C@@H]1[C@@H]2C(=O)C[C@@]2(C)[C@H]1CC[C@]2(O)C(=O)CO [prednisone]
inhibition of human 9cRDH activity by hydroxysteroids [1, 3]: none of these hydroxysteroids inhibited
inhibition of mouse 9cRDH activity by hydroxysteroids [2, 3]: none of these hydroxysteroids inhibited

CC(=O)[C@H]1CC[C@H]2[C@@H]3CCC4=CC(=O)CC[C@]4(C)[C@H]3CC[C@]12C [progesterone]
inhibition of human 9cRDH activity by hydroxysteroids [1, 3]: none of these hydroxysteroids inhibited
inhibition of mouse 9cRDH activity by hydroxysteroids [2, 3]: none of these hydroxysteroids inhibited

C[C@H](CCC(=O)[O-])[C@H]1CC[C@H]2[C@@H]3[C@H](O)C[C@@H]4C[C@H](O)CC[C@]4(C)[C@H]3C[C@H](O)[C@]12C.[Na+] [sodium cholate]
effect on 9cRDH activity expressed in CHO cells (first series) [1]: rapidly inactivated

CC(=O)[O-].CC(=O)[O-].[Zn+2] [zinc acetate]
influence of SCAD/alcohol dehydrogenase inhibiting reagents on recombinant human 9cRDH activity [1]: none of these compounds influenced
influence of SCAD/alcohol dehydrogenase inhibiting reagents on recombinant mouse 9cRDH activity [2]: none of these compounds influenced

C[C@]12CC[C@@H]3c4ccc(O)cc4CC[C@H]3[C@@H]1CC[C@@H]2O [β-estradiol]
inhibition of human 9cRDH activity by hydroxysteroids [1, 3]: none of these hydroxysteroids inhibited
inhibition of mouse 9cRDH activity by hydroxysteroids [2, 3]: none of these hydroxysteroids inhibited

Triton X-100
effect on 9cRDH activity expressed in CHO cells (first series) [1]: rapidly inactivated
